Assay results published in patent publication US20130023553A1, “PEGYLATED OPIOIDS WITH LOW POTENTIAL FOR ABUSE AND SIDE EFFECTS” (Nektar Therapeutics, priority 2010, published 2013).
Read-outs that look alike come from different tables or passages of the source.

Key:
[1] = Pharmacokinetics following intravenous (IV) dosing; type: in vivo, Sprague-Dawley rats; design: Cmax: unit: ng/mL; conditions: for Vd: read-out: Vss
Text: (§1) There were 3 rats/group. All animals were food fasted overnight. […] The predose sample was collected from the JVC.
(§2) Following the last collection point, the animals were euthanized.

[2] = Pharmacokinetics following oral (PO) dosing; type: in vivo, Sprague-Dawley rats; design: Cmax: unit: ng/mL
Text: as §1, §2

[3] = biological target: T1, human mu opioid receptor (Homo sapiens, UniProt P35372); test: cell-based; conditions: for Emax: read-out: % max effect, mu opioid receptor
T1 construct: expressed in transfected cells; host or cells: CHO cells
T1 sequence (P35372 whole entry): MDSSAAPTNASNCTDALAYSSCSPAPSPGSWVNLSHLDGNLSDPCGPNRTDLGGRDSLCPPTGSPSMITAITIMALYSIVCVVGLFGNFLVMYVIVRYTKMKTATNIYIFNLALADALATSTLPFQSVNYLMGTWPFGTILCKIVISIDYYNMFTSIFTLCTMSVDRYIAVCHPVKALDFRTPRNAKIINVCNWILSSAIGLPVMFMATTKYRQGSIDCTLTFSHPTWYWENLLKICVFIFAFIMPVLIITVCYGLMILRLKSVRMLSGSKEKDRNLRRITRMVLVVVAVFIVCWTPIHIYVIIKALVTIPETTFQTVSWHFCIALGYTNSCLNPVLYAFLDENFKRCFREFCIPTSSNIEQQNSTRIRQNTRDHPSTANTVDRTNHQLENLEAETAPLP
Procedure: Studies were conducted in CHO cells heterologously expressing the cloned human mu, kappa or delta opioid receptors. cAMP was measured using a cAMP HiRange homogenous time-resolved fluorescence assay (HTRF Assay), that is based on a competitive immunoassay principle (Cisbio, Cat.#62AM6PEC).
Briefly, suspensions of cells expressing either the mu, kappa or delta opioid receptors were prepared in buffer containing 0.5 mM isobutyl-methyl xanthine (IBMX). […] EC50 values were calculated for each compound from a sigmoidal dose-response plot of concentrations versus maximum response. To determine if the compounds behaved as full or partial agonists in the system, the maximal response at the highest tested concentrations of compounds were compared to that produced by a known full agonist.

[4] = biological target: T1, human mu opioid receptor; test: biochemical; type: binding
Procedure: Radioligand displacement was measured using scintillation proximity assays (SPA).
Briefly, serial dilutions of the test compounds were placed in a 96-well plate to which were added SPA beads, membrane and radioligand. The assay conditions for each opioid receptor subtype are described in Table 10 below. The plates were incubated for 8 hours-overnight at room temperature, spun at 1000 rpm to pellet the SPA beads, and radioactivity was measured using the TopCount® microplate Scintillation counter. Specific binding at each concentration of test compound was calculated by subtracting the non-specific binding measured in the presence of excess cold ligand. IC50 values were obtained by non-linear regression of specific binding versus concentration curves and Ki values were calculated using Kd values that were experimentally pre-determined for each lot of membrane preparations.

[5] = test system: squirrel monkeys; test: Monkey self-administration model of addictive potential
Text: Dose-related effects of the test articles were examined, using two or more doses of each drug in 3-4 subjects in a double alternation schedule in which each unit dose (or vehicle) was used in two consecutive sessions before a change in unit dose.
Addictive potential of opioid compounds and opioid conjugates of the invention may be assessed through the use of squirrel monkey models as known in the art.
Under the double alternation schedule, each unit dose (or vehicle) was available for intravenous self-administration for two consecutive sessions before the unit dose was changed. In this way, it was possible to establish the function relating unit dose of intravenous drug to (i) number of injections per session, and/or (ii) the percentage of total responses that occur on the lever leading to self-administration (injection-lever responding, % ILR). Unit doses of drugs ranged from 0.01 to 3.2 mg/kg/injection.

[6] = codeine series, 5 mg/kg oral, Mean ± SD
[7] = read-out: EC50, mu opioid receptor
[8] = male, Sprague-Dawley, rat, plasma, hydroxycodone series, 1 mg/kg IV, Mean ± SD
[9] = male, Sprague-Dawley, rat, plasma, hydroxycodone series, 1 mg/kg IV, Mean ± SD, read-out: Cmax
[10] = male, Sprague-Dawley, rat, plasma, hydroxycodone series, 1 mg/kg IV, Mean ± SD, read-out: T1/2(z)
[11] = CHO-K1 membranes, [3H]DAMGO 6 nM, read-out: Ki, Mu opioid receptor
[12] = male, Sprague-Dawley, rat, plasma, po, 5 mg/kg
[13] = male, Sprague-Dawley, rat, plasma, hydroxycodone series, 5.0 mg/kg oral, Mean ± SD
[14] = maximal response at the highest tested concentration
[15] = male, Sprague-Dawley, rat, plasma, iv, 1 mg/kg

Compound: COc1ccc2c3c1O[C@H]1[C@@H](O)C=C[C@H]4[C@@H](C2)N(C)CC[C@@]341 [Codeine, codeine, reference compound]
- AUCall ([1]; codeine series, 1 mg/kg IV): 11000 ± 1600 ng·min/mL
- AUCinf ([1]; codeine series, 1 mg/kg IV): 11400 ± 2070 ng·min/mL
- CL ([1]; codeine series, 1 mg/kg IV): 89.7 ± 15.3 mL/min/kg
- Cmax ([1]; codeine series, 1 mg/kg IV): 469 ± 20.4 ng/mL
- MRTlast ([1]; codeine series, 1 mg/kg IV): 40.2 ± 9.08 min
- Vss ([1]; codeine series, 1 mg/kg IV): 4.14 ± 0.700 L/kg
- AUCall [2, 6]: 328 ± 216 ng·min/mL
- Cmax [2, 6]: 6.24 ± 2.51 ng/mL
- MRTlast [2, 6]: 33.2 ± 12.9 min
- AUCinf ([2]; codeine series, 5 mg/kg oral, Mean ± SD, # n = 1, * n = 2): 431^# min · ng/mL
- Tmax ([2]; codeine series, 5 mg/kg oral, median value): 15.0 min
- F % ([2]; codeine series, oral bioavailability, 5 mg/kg oral vs 1 mg/kg IV): 0.60%

Compound: COc1ccc2c3c1OC1C(O)CCC4(O)C(C2)N(C)CCC314 (stereo not drawn) [Hydroxycodone, α-6-hydroxycodone, reference compound]
- EC50 [3, 7]: 3160 nM

Compound: COCCOC1C=CC2C3Cc4ccc(O)c5c4C2(CCN3C)C1O5 (stereo not drawn) [α-6-mPEG1-O-morphine]
- Ki [4]: 15.7 nM
- EC50 [3]: 85 nM
- Emax [3]: 91%

Compound: COCCOCCOC1CCC2(O)C3Cc4ccc(OC)c5c4C2(CCN3C)C1O5 (stereo not drawn) [α-6-mPEG2-O-hydroxycodone, α-6-mPEG2-O-oxycodone]
- AUC [1, 8]: 200 ng·h/mL
- AUC(0-inf) [1, 8]: 203 ng·h/mL
- MRT last [1, 8]: 37 min
- clearance [1, 8]: 83.3 ± 10.8 mL/min/kg
- Cmax [1, 9]: 513 ± 48.8 ng/mL
- half-life [1, 10]: 44.6 ± 1.8 min
- Vd [1, 8]: 3.36 ± 0.298 L/kg
- Ki [4, 11]: 632 nM
- bioavailability [2, 12]: 9.4%
- AUC [2, 13]: 98.5 ng·h/mL
- MRT last [2, 13]: 55.4 min
- AUC(0-inf) ([2]; male, Sprague-Dawley, rat, plasma, hydroxycodone series, 5.0 mg/kg oral, Mean ± SD, * n = 2): 97.2 ng·h/mL
- half-life ([2]; male, Sprague-Dawley, rat, plasma, hydroxycodone series, 5.0 mg/kg oral, Mean ± SD, * n = 2, read-out: T1/2(z)): 48.5 ± 12 min
- Cmax ([2]; male, Sprague-Dawley, rat, plasma, hydroxycodone series, 5.0 mg/kg oral, Mean ± SD, read-out: Cmax): 99.4 ± 47.3 ng/mL
- Tmax ([2]; male, Sprague-Dawley, rat, plasma, hydroxycodone series, 5.0 mg/kg oral, median value, read-out: Tmax (converted)): 15 min
- Emax [3, 14]: 101%
- EC50 [3, 7]: 5010 nM

Compound: COCCOCCOC1C=CC2C3Cc4ccc(O)c5c4C2(CCN3C)C1O5 (stereo not drawn) [α-6-mPEG2-O-morphine]
- Ki [4]: 22 nM
- EC50 [3]: 93.3 nM
- Emax [3]: 91%

Compound: COCCOCCOCCOC1C=CC2C3Cc4ccc(OC)c5c4C2(CCN3C)C1O5 (stereo not drawn) [α-6-mPEG3-O-codeine]
- AUC [1, 15]: 288 ng·h/mL
- AUC(0-inf) [1, 15]: 290 ng·h/mL
- MRT last [1, 15]: 33.8 min
- clearance [1, 15]: 57.7 ± 4.89 mL/min/kg
- Cmax ([1]; male, Sprague-Dawley, rat, plasma, iv, 1 mg/kg, read-out: Cmax): 732 ± 27.1 ng/mL
- half-life ([1]; male, Sprague-Dawley, rat, plasma, iv, 1 mg/kg, read-out: T1/2(2)): 39.4 ± 1.49 min
- Vd [1, 15]: 2.07 ± 0.127 L/kg
- Ki [4, 11]: 4260 nM
- AUC [2, 12]: 32 ng·h/mL
- AUC(0-inf) [2, 12]: 34.7 ng·h/mL
- MRT last [2, 12]: 71 min
- bioavailability [2, 12]: 2.39%
- Cmax ([2]; male, Sprague-Dawley, rat, plasma, po, 5 mg/kg, read-out: Cmax): 25 ± 6.59 ng/mL
- half-life ([2]; male, Sprague-Dawley, rat, plasma, po, 5 mg/kg, read-out: T1/2(2)): 125 ± 64.6 min
- Tmax ([2]; male, Sprague-Dawley, rat, plasma, po, 5 mg/kg, read-out: Tmax (converted)): 15 min
- Emax [3, 14]: 91%

Compound: COCCOCCOCCOC1CCC2(O)C3Cc4ccc(OC)c5c4C2(CCN3C)C1O5 (stereo not drawn) [α-6-mPEG3-O-hydroxycodone, α-6-mPEG3-O-oxycodone]
- AUC [1, 8]: 230 ng·h/mL
- AUC(0-inf) [1, 8]: 233 ng·h/mL
- MRT last [1, 8]: 32.5 min
- clearance [1, 8]: 71.7 ± 4.99 mL/min/kg
- Cmax [1, 9]: 746 ± 2.08 ng/mL
- half-life [1, 10]: 48.5 ± 7.83 min
- Vd [1, 8]: 2.62 ± 0.206 L/kg
- subjects showing addictive behavior ([5]; 0.1 mg/kg/injection): 25%
- subjects showing addictive behavior ([5]; 0.3 mg/kg/injection): 50%
- subjects showing addictive behavior ([5]; 1 mg/kg/injection): 100%
- Ki [4, 11]: 775 nM
- Emax [3, 14]: 108%
- EC50 [3, 7]: 2830 nM

Compound: COCCOCCOCCOC1C=CC2C3Cc4ccc(O)c5c4C2(CCN3C)C1O5 (stereo not drawn) [α-6-mPEG3-O-morphine]
- subjects showing addictive behavior ([5]; 0.1 mg/kg/injection): 33%
- subjects showing addictive behavior ([5]; 0.3 mg/kg/injection): all animals
- Ki [4]: 50.7 nM
- EC50 [3]: 270 nM
- Emax [3]: 100%
